Several values for one entry are separate records, joined by “and”; a condition that tells them apart may be missing. Identical values can stand only once.
Assay: Radiolysis / stability of [18F]DCFPyL over time by HPLC with radiodetection (RCP, free 18F, radioactive impurities)
Format: physicochemical
Method: Those of ordinary skill in the art will be aware of techniques and systems for determining the radiochemical purity of a composition. In some cases, the radiochemical purity is determined using an HPLC associated with a radio-detector. Generally, the radiochemical purity is determined under ambient conditions (e.g., ambient temperature, ambient humidity, ambient light, etc.), such as in samples stored under such conditions.
Stability was assessed using reverse phase HPLC on a C18 column with a phosphate buffer/acetonitrile gradient mobile phase, and the elution profile was monitored using both UV and radiochemical detectors. Samples were analyzed either by direct injection onto the HPLC, dilution and injection or including the addition of tetraethylammonium fluoride (TEAF) into the sample before injection.
Known amounts of free ^18F either alone or spiked with TEAF were injected onto the analytic column and the eluent from the column collected over the course of a chromatogram and assaying the radioactivity using a Capintec. […] Adding TEAF into the analytic samples was incorporated into subsequent studies examining potential radiolysis of [^18F]DCFPyL to overcome some of the limitations of free ^18F quantification.
Analytical HPLC method was used. The method employs UV detection at 264 nm for chemical impurities, and an Eckert & Ziegler model B-FC-1000 gamma detector for radiochemical assays.

[1] = 110 mCi/mL in 50 mg/mL pH 5.8 ascorbic acid, T = 3.0 h
[2] = 110 mCi/mL in 50 mg/mL pH 5.8 ascorbic acid, T = 3.5 h
[3] = 110 mCi/mL in 50 mg/mL pH 5.8 ascorbic acid, T = 4.0 h
[4] = 147 mCi/mL in 0.9% Sodium Chloride, USP, no ascorbic acid, T = 0 h
[5] = 147 mCi/mL in 0.9% Sodium Chloride, USP, no ascorbic acid, T = 0.5 h
[6] = 147 mCi/mL in 0.9% Sodium Chloride, USP, no ascorbic acid, T = 1.0 h
[7] = 147 mCi/mL in 0.9% Sodium Chloride, USP, no ascorbic acid, T = 1.5 h
[8] = 147 mCi/mL in 0.9% Sodium Chloride, USP, no ascorbic acid, T = 2.0 h
[9] = 147 mCi/mL in 0.9% Sodium Chloride, USP, no ascorbic acid, T = 2.5 h
[10] = 147 mCi/mL in 0.9% Sodium Chloride, USP, no ascorbic acid, T = 3.0 h
[11] = 147 mCi/mL in 0.9% Sodium Chloride, USP, no ascorbic acid, T = 3.5 h
[12] = 147 mCi/mL in 0.9% Sodium Chloride, USP, no ascorbic acid, T = 4.0 h
[13] = T = 0/1, 50 mg/mL ascorbic acid pH 5.8, 20% ethanol, 106.5 mCi/mL at EOS
[14] = T = 0, 0.5 mg/mL ascorbic acid pH 5.8, 20% ethanol, 105.8 mCi/mL at EOS
[15] = T = 0, 1 mg/mL ascorbic acid pH 5.8, 20% ethanol, 107.0 mCi/mL at EOS
[16] = T = 0, 5 mg/mL ascorbic acid pH 5.8, 20% ethanol, 99.0 mCi/mL at EOS
[17] = T = 0, 20 mg/mL sodium citrate, 20% ethanol, 104.8 mCi/mL at EOS, MPA = 0.25% of main peak
[18] = T = 0, 50 mg/mL ascorbic acid pH 5.8, 20% ethanol, 139.7 mCi/mL at EOS
[19] = T = 0 hr, 50 mg/mL ascorbic acid pH 5.8 in final product vial, 20% ethanol, 110 mCi/mL at EOS
[20] = T = 0 hr, 100 mg/mL ascorbic acid pH 2.0, 256 mCi/mL at EOS
[21] = T = 0 hr, 20% ethanol in saline, 52 mCi/mL at EOS
[22] = T = 0 hr, 20% ethanol in saline, 65 mCi/mL at EOS
[23] = T = 0 hr, 20% ethanol in saline, 85 mCi/mL at EOS
[24] = T = 0 hr, 100% ethanol, 325 mCi/mL at EOS
[25] = T = 0 hr, control without ascorbic acid, 36% ethanol in saline, 147 mCi/mL at EOS
[26] = T = 3, 50 mg/mL ascorbic acid pH 5.8, 20% ethanol, 106.5 mCi/mL at EOS
[27] = T = 4, 50 mg/mL ascorbic acid pH 5.8, 20% ethanol, 106.5 mCi/mL at EOS
[28] = T = 6, 50 mg/mL ascorbic acid pH 5.8, 20% ethanol, 106.5 mCi/mL at EOS

O=C(O)CC[C@H](NC(=O)N[C@@H](CCCCNC(=O)c1ccc([18F])nc1)C(=O)O)C(=O)O [Lot 18F-DCFPyL, 2-(3-{1-carboxy-5-[(6-[18F]fluoro-pyridine-3-carbonyl)-amino]-pentyl}ureido)-pentanedioic acid]
free 18F accumulating over 4 hrs (50 mg/mL ascorbic acid pH 5.8, 20% ethanol, 111 mCi/mL at EOS): 0.26%
free 18F accumulating over 4 hrs (100 mg/mL ascorbic acid pH 2.0, 256 mCi/mL at EOS): 0.08%
18F-DCFPyL (110 mCi/mL in 50 mg/mL pH 5.8 ascorbic acid, T = 0 h): 99.73 area %
18F-DCFPyL (110 mCi/mL in 50 mg/mL pH 5.8 ascorbic acid, T = 0.5 h): 99.72 area %
18F-DCFPyL (110 mCi/mL in 50 mg/mL pH 5.8 ascorbic acid, T = 1.0 h): 96.74 area %
18F-DCFPyL (110 mCi/mL in 50 mg/mL pH 5.8 ascorbic acid, T = 1.5 h): 99.66 area %
18F-DCFPyL (110 mCi/mL in 50 mg/mL pH 5.8 ascorbic acid, T = 2.0 h): 99.76 area %
18F-DCFPyL (110 mCi/mL in 50 mg/mL pH 5.8 ascorbic acid, T = 2.5 h): 99.66 area %
18F-DCFPyL [1]: 99.30 area %
Free 18F [1]: 0.35 area %
18F-DCFPyL [2]: 99.46 area %
Free 18F [2]: 0.24 area %
18F-DCFPyL [3]: 99.43 area %
Free 18F [3]: 0.26 area %
18F-DCFPyL [4]: 94.17 area %
Free 18F [4]: 4.68 area %
18F-DCFPyL [5]: 90.65 area %
Free 18F [5]: 7.73 area %
18F-DCFPyL [6]: 90.71 area %
Free 18F [6]: 7.69 area %
18F-DCFPyL [7]: 89.59 area %
Free 18F [7]: 8.78 area %
18F-DCFPyL [8]: 89.50 area %
Free 18F [8]: 8.67 area %
18F-DCFPyL [9]: 88.79 area %
Free 18F [9]: 9.66 area %
18F-DCFPyL [10]: 88.94 area %
Free 18F [10]: 9.49 area %
18F-DCFPyL [11]: 88.90 area %
Free 18F [11]: 9.56 area %
18F-DCFPyL [12]: 89.06 area %
Free 18F [12]: 9.27 area %
Free 18F (256 mCi/mL in ethanol, ascorbic acid in process, T = 0 h): 0.29 area %
Free 18F (256 mCi/mL in ethanol, ascorbic acid in process, T = 0.5 h): 0.40 area %
Free 18F (256 mCi/mL in ethanol, ascorbic acid in process, T = 1.0 h): 0.31 area %
Free 18F (256 mCi/mL in ethanol, ascorbic acid in process, T = 1.5 h): 0.31 area %
Free 18F (256 mCi/mL in ethanol, ascorbic acid in process, T = 2.0 h): 0.31 area %
Free 18F (256 mCi/mL in ethanol, ascorbic acid in process, T = 2.5 h): 0.31 area %
Free 18F (256 mCi/mL in ethanol, ascorbic acid in process, T = 3.0 h): 0.29 area %
Free 18F (256 mCi/mL in ethanol, ascorbic acid in process, T = 3.5 h): 0.42 area %
Free 18F (256 mCi/mL in ethanol, ascorbic acid in process, T = 4.0 h): 0.40 area %
18F-DCFPyL (256 mCi/mL in ethanol, 100 mg/mL pH 2.0 ascorbic acid in collection vial and HLB wash, T = 0 h): 99.71 area %
18F-DCFPyL (256 mCi/mL in ethanol, 100 mg/mL pH 2.0 ascorbic acid in collection vial and HLB wash, T = 0.5 h): 99.60 area %
18F-DCFPyL (256 mCi/mL in ethanol, 100 mg/mL pH 2.0 ascorbic acid in collection vial and HLB wash, T = 1.0 h): 98.68 area %
18F-DCFPyL (256 mCi/mL in ethanol, 100 mg/mL pH 2.0 ascorbic acid in collection vial and HLB wash, T = 1.5 h): 98.58 area %
18F-DCFPyL (256 mCi/mL in ethanol, 100 mg/mL pH 2.0 ascorbic acid in collection vial and HLB wash, T = 2.0 h): 98.20 area %
18F-DCFPyL (256 mCi/mL in ethanol, 100 mg/mL pH 2.0 ascorbic acid in collection vial and HLB wash, T = 2.5 h): 98.71 area %
18F-DCFPyL (256 mCi/mL in ethanol, 100 mg/mL pH 2.0 ascorbic acid in collection vial and HLB wash, T = 3.0 h): 98.46 area %
18F-DCFPyL (256 mCi/mL in ethanol, 100 mg/mL pH 2.0 ascorbic acid in collection vial and HLB wash, T = 3.5 h): 97.96 area %
18F-DCFPyL (256 mCi/mL in ethanol, 100 mg/mL pH 2.0 ascorbic acid in collection vial and HLB wash, T = 4.0 h): 97.95 area %
RCP (4 hours, 5 mg/mL ascorbate pH 6 FPV prefill and 6 mg/mL pH 6 ascorbate as delivery solution): 98%
RCP (4 hours, 10 mg/mL pH 6 ascorbate in collection vial and 5 mg/mL pH 6 ascorbic acid in final product vial): 99%
% RCP (10 hours, 3.3 mg/mL ascorbic acid in FPV, 10 mg/mL pH 2 in collection vial): 97%
RCP (10 hours, 5 mg/mL, pH 6 ascorbate in the final product): 96%
% RCP (10 hours, 5.6 mg/mL ascorbic acid in FPV, 10 mg/mL pH 2 in collection vial): 98%
% RCP (10 hours, 7.8 mg/mL ascorbic acid in FPV, 10 mg/mL pH 2 in collection vial): 97%
RCP (10 hours, pH 2 ascorbate in collection vial, 5 mg/mL ascorbate pH 6 in FPV): 98%
% RCP (10 hours, pH 4.5): 98%
% RCP (10 hours, pH 5.5): 97%
% RCP (10 hours, pH 7.0): 97%
18F-DCFPyL (% RCP) [13]: 100.00%
Free F-18 [13]: 0.00%
18F-DCFPyL (% RCP) [14]: 100.00%
Free F-18 [14]: 0.00%
18F-DCFPyL (% RCP) [15]: 99.68%
Free F-18 [15]: 0.32%
Free F-18 (T = 0, 1 mg/mL sodium ascorbate, 20% ethanol, 111.5 mCi/mL at EOS): 0.57%
18F-DCFPyL (% RCP) [16]: 100.00%
Free F-18 [16]: 0.00%
Free F-18 (T = 0, 20 mg/mL sodium citrate, 20% ethanol, 104.8 mCi/mL at EOS): 10.22%
RT 3.4 radioactive impurity [17]: <MPA
RT 3.7 radioactive impurity [17]: <MPA
18F-DCFPyL (% RCP) [18]: 100.00%
Free F-18 [18]: 0.00%
RT 4.8 radioactive impurity (T = 0, 50 mg/mL ascorbic acid pH 5.8, 20% ethanol, 139.7 mCi/mL at EOS, MPA = 0.25% of main peak): <MPA
18F-DCFPyL (RCP) [19]: 99.7% and 99.73%
Free 18F [19]: < LLQ
RT 5.0 radioactive impurity [19]: 0.27%
18F-DCFPyL (RCP) (T = 0 hr, 50 mg/mL ascorbic acid pH 5.8 in final product vial, 20% ethanol, 110 mCi/mL at EOS, listed as [^18F]DCFPYL): 99.7%
18F-DCFPyL (RCP) [20]: 99.7% and 99.71%
Free 18F [20]: 0.29%
18F-DCFPyL (RCP) (T = 0 hr, 100 mg/mL ascorbic acid pH 2.0, 256 mCi/mL at EOS, listed as [^18F]DCFPYL): 99.7%
18F-DCFPyL (RCP) [21]: 99.31%
Free F-18 [21]: 0.23%
RT 5.0 radioactive impurity [21]: 0.46%
18F-DCFPyL (RCP) [22]: 98.75%
Free F-18 [22]: 0.91%
RT 5.0 radioactive impurity [22]: 0.34%
18F-DCFPyL (RCP) [23]: 97.56%
Free F-18 [23]: 2.10%
RT 5.0 radioactive impurity [23]: 0.34%
18F-DCFPyL (RCP) [24]: 98.37%
Free F-18 [24]: 1.63%
18F-DCFPyL (RCP) [25]: 94% and 94.17%
Free F-18 [25]: 4.68%
RT 5.0 radioactive impurity [25]: 0.50%
RT 5.9 radioactive impurity [25]: 0.64%
18F-DCFPyL (RCP) (T = 0 hr, control without ascorbic acid, 36% ethanol in saline, 147 mCi/mL at EOS, listed as [^18F]DCFPYL): 94%
Free F-18 (T = 0.5, 5 mg/mL sodium ascorbate, 20% ethanol, 114.6 mCi/mL at EOS): 0.39%
18F-DCFPyL (% RCP) [26]: 100.00%
Free F-18 [26]: 0.00%
18F-DCFPyL (% RCP) [27]: 99.75%
Free F-18 [27]: 0.25%
18F-DCFPyL (% RCP) [28]: 99.72%
Free F-18 [28]: 0.28%

Source: patent publication US20250019350A1, “SYNTHESIS OF THE PROSTATE SPECIFIC MEMBRANE ANTIGEN (PSMA) RADIOLABELED INHIBITOR [18F]DCFPYL” (Progenics Pharmaceuticals, Inc, priority 2023, published 2025)
